The source of these data is patent publication US8481732B2 (Incyte Corporation, priority 2009, dated 2013).

Each structure is given as a SMILES string.

In this assay the target is T1, histamine H4 receptor (Homo sapiens, UniProt Q9H3N8).
T1 construct: expressed in transfected cells; host or cells: HEK293SFM cells (membrane preparation)
T1 sequence (Q9H3N8 whole entry): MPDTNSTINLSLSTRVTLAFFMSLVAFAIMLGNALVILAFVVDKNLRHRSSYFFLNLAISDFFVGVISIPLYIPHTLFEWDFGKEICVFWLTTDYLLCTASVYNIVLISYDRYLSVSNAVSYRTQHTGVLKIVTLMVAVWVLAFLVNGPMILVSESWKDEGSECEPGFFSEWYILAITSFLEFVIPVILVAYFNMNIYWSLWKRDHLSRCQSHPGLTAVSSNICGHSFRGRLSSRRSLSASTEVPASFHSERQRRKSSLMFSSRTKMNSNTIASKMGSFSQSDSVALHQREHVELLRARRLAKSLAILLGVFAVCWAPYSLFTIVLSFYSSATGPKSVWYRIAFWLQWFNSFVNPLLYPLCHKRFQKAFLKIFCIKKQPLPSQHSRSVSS
Kind of assay: H4 Membrane Binding Assay (3H-Histamine displacement). Conditions: membranes of recombinant HEK293SFM cells, 10 nM 3H-Histamine, 1.5 hr at room temperature. Put shortly: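 Membranes from HEK293SFM cells expressing human H4 (also human H1–H3, mouse H4), prepared in ice-cold 50 mM Tris-HCl pH 7.5. [3H]-histamine displacement, nonspecific binding defined with 1000× unlabeled ligand. Bound radioactivity separated on PEI-treated GF/B filters and measured by liquid scintillation counting.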
For orientation: IC50 means the midpoint of a concentration-inhibition curve. As to `CCC(C)CC(=O)N1CCc2ccc(-c3cc(N4CCN(C)CC4)nc(N)n3)cc2C1` (stereo not drawn) [Example 111, 4-[2-(3-Methylpentanoyl)-1,2,3,4-tetrahydroisoquinolin-7-yl]-6-(4-methylpiperazin-1-yl)pyrimidin-2-amine], the IC50 worked out at 9.5 nM.

Take `CN1CCN(c2cc(-c3ccc4c(c3)CN(C(=O)Cn3cccn3)CC4)nc(N)n2)CC1` [Example 112, 4-(4-Methylpiperazin-1-yl)-6-[2-(1H-pyrazol-1-ylacetyl)-1,2,3,4-tetrahydroisoquinolin-7-yl]pyrimidin-2-amine]: the IC50 was found to be 337 nM.

For the compound `COC(=O)NC(C)CC(=O)N1CCc2ccc(-c3cc(N4CCN(C)CC4)nc(N)n3)cc2C1` (stereo not drawn) [Example 113, Methyl{3-[7-[2-amino-6-(4-methylpiperazin-1-yl)pyrimidin-4-yl]-3,4-dihydroisoquinolin-2(1H)-yl]-1-methyl-3-oxopropyl}carbamate], the IC50 was found to be 147 nM. As to `COC(=O)NC(CC(=O)N1CCc2ccc(-c3cc(N4CCN(C)CC4)nc(N)n3)cc2C1)C1CCCCC1` (stereo not drawn) [Example 114, Methyl{3-[7-[2-amino-6-(4-methylpiperazin-1-yl)pyrimidin-4-yl]-3,4-dihydroisoquinolin-2(1H)-yl]-1-cyclohexyl-3-oxopropyl}carbamate], the IC50 is 109 nM. Regarding `COC(=O)N1CCC(OC(=O)N2CCc3ccc(-c4cc(N5CCN(C)CC5)nc(N)n4)cc3C2)CC1` [Example 115, 1-(Methoxycarbonyl)piperidin-4-yl 7-[2-amino-6-(4-methylpiperazin-1-yl)pyrimidin-4-yl]-3,4-dihydroisoquinoline-2(1H)-carboxylate], the IC50 was 33 nM. As to `CCOC(=O)N1CCC(OC(=O)N2CCc3ccc(-c4cc(N5CCN(C)CC5)nc(N)n4)cc3C2)CC1` [Example 116, 1-(Ethoxycarbonyl)piperidin-4-yl 7-[2-amino-6-(4-methylpiperazin-1-yl)pyrimidin-4-yl]-3,4-dihydroisoquinoline-2(1H)-carboxylate], the IC50 was 38 nM. Next, `CN1CCN(c2cc(-c3ccc4c(c3)CN(C(=O)NC3(C(F)(F)F)CC3)CC4)nc(N)n2)CC1` [Example 117, 7-[2-amino-6-(4-methylpiperazin-1-yl)pyrimidin-4-yl]-N-[1-(trifluoromethyl)cyclopropyl]-3,4-dihydroisoquinoline-2(1H)-carboxamide]: 183 nM; `COC(=O)N1CCC(CC(=O)N2CCc3ccc(-c4cc(N5CCN(C)CC5)nc(N)n4)cc3C2)C1` (stereo not drawn) [Example 118, Methyl 3-{2-[7-[2-amino-6-(4-methylpiperazin-1-yl)pyrimidin-4-yl]-3,4-dihydroisoquinolin-2(1H)-yl]-2-oxoethyl}pyrrolidine-1-carboxylate]: 178 nM. Next, `CC(C)OC(=O)N1CCC(CC(=O)N2CCc3ccc(-c4cc(N5CCN(C)CC5)nc(N)n4)cc3C2)C1` (stereo not drawn) [Example 119, Isopropyl 3-{2-[7-[2-amino-6-(4-methylpiperazin-1-yl)pyrimidin-4-yl]-3,4-dihydroisoquinolin-2(1H)-yl]-2-oxoethyl}pyrrolidine-1-carboxylate]: 70 nM.

Consider `CN1CCN(c2cc(-c3ccc4c(c3)CN(C(=O)CC3(C#N)CCC3)CC4)nc(N)n2)CC1` [Example 120, 1-{2-[7-[2-Amino-6-(4-methylpiperazin-1-yl)pyrimidin-4-yl]-3,4-dihydroisoquinolin-2(1)-yl]-2-oxoethyl}cyclobutanecarbonitrile], for which the IC50 stood at 34 nM. `CN1CCN(c2cc(-c3ccc4c(c3)CN(C(=O)CC(C)(C)C#N)CC4)nc(N)n2)CC1` [Example 121, 4-[7-[2-Amino-6-(4-methylpiperazin-1-yl)pyrimidin-4-yl]-3,4-dihydroisoquinolin-2(1H)-yl]-2,2-dimethyl-4-oxobutanenitrile]: the IC50 stood at 39 nM. As to `CN1CCN(c2cc(-c3ccc4c(c3)CN(C(=O)CC3(C#N)CCCC3)CC4)nc(N)n2)CC1` [Example 122, 1-{2-[7-[2-Amino-6-(4-methylpiperazin-1-yl)pyrimidin-4-yl]-3,4-dihydroisoquinolin-2(1H)-yl]-2-oxoethyl}cyclopentanecarbonitrile], the IC50 amounted to 22 nM. Next, `CN1CCN(c2cc(-c3ccc4c(c3)CN(C(=O)CC(C)(C#N)C3CC3)CC4)nc(N)n2)CC1` (stereo not drawn) [Example 123, 4-[7-[2-Amino-6-(4-methylpiperazin-1-yl)pyrimidin-4-yl]-3,4-dihydroisoquinolin-2(1H)-yl]-2-cyclopropyl-2-methyl-4-oxobutanenitrile]: 105 nM; `CN1CCN(c2cc(-c3ccc4c(c3)CN(C(=O)CC(C#N)c3ccccc3)CC4)nc(N)n2)CC1` (stereo not drawn) [Example 124, 4-[7-[2-Amino-6-(4-methylpiperazin-1-yl)pyrimidin-4-yl]-3,4-dihydroisoquinolin-2(1H)-yl]-4-oxo-2-phenylbutanenitrile]: 36 nM.

Take `CN1CCN(c2cc(-c3ccc4c(c3)CN(C(=O)Cc3cncc(C#N)c3)CC4)nc(N)n2)CC1` [Example 125, 5-{2-[7-[2-Amino-6-(4-methylpiperazin-1-yl)pyrimidin-4-yl]-3,4-dihydroisoquinolin-2(1H)-yl]-2-oxoethyl}nicotinonitrile]: the IC50 came out at 92 nM.

For the compound `CC(NC(=O)N1CCc2ccc(-c3cc(N4CCN(C)CC4)nc(N)n3)cc2C1)c1cccnc1` (stereo not drawn) [Example 126, 7-[2-Amino-6-(4-methylpiperazin-1-yl)pyrimidin-4-yl]-N-(1-pyridin-3-ylethyl)-3,4-dihydroisoquinoline-2(1H)-carboxamide], the IC50 was found to be 569 nM. As for `CC(NC(=O)N1CCc2ccc(-c3cc(N4CCN(C)CC4)nc(N)n3)cc2C1)c1ccn(C)n1` (stereo not drawn) [Example 127, 7-[2-Amino-6-(4-methylpiperazin-1-yl)pyrimidin-4-yl]-N-[1-(1-methyl-1H-pyrazol-3-yl)ethyl]-3,4-dihydroisoquinoline-2(1H)-carboxamide], the IC50 was 253 nM. Consider `CN1CCN(c2cc(-c3ccc4c(c3)CN(C(=O)Cc3ccc(N5CCCC5)nc3)CC4)nc(N)n2)CC1` [Example 128, 4-(4-Methylpiperazin-1-yl)-6-{2-[(6-pyrrolidin-1-ylpyridin-3-yl)acetyl]-1,2,3,4-tetrahydroisoquinolin-7-yl}pyrimidin-2-amine], for which the IC50 is 45 nM.

With `CN1CCN(c2nc(N)nc3cc(C(=O)NC(C#N)c4ccccc4)ccc23)CC1` (stereo not drawn) [Example 129, 2-Amino-N-[cyano(phenyl)methyl]-4-(4-methylpiperazin-1-yl)quinazoline-7-carboxamide], the IC50 was 156 nM. Take `CCOC(=O)[C@H](CCc1ccccc1)NC(=O)c1ccc2c(N3CCN(C)CC3)nc(N)nc2c1` [Example 130, Ethyl (2S)-2-({[2-amino-4-(4-methylpiperazin-1-yl)quinazolin-7-yl]carbonyl}amino)-4-phenylbutanoate]: the IC50 worked out at 71 nM. On to `CN1CCN(c2nc(N)nc3cc(C(=O)NCc4ccc(Cl)c(Cl)c4)ccc23)CC1` [Example 131, 2-Amino-N-(3,4-dichlorobenzyl)-4-(4-methylpiperazin-1-yl)quinazoline-7-carboxamide], for which the IC50 was found to be 17 nM. As to `CN1CCN(c2nc(N)nc3cc(C(=O)NCC(=O)OCc4ccccc4)ccc23)CC1` [Example 132, Benzyl({[2-amino-4-(4-methylpiperazin-1-yl)quinazolin-7yl]carbonyl}amino)acetate], the IC50 was determined as 139 nM. Next, `COC(=O)[C@H](Cc1ccc(OC(C)C)cc1)NC(=O)c1ccc2c(N3CCN(C)CC3)nc(N)nc2c1` [Example 134, Methyl (2S)-2-({[2-amino-4-(4-methylpiperazin-1-yl)quinazolin-7-yl]carbonyl}amino)-3-(4-isopropoxyphenyl)propanoate]: 29 nM. As for `COC(=O)[C@H](Cc1ccc(OC(=O)NC(C)C)cc1)NC(=O)c1ccc2c(N3CCN(C)CC3)nc(N)nc2c1` [Example 135, (S)-Methyl 2-(2-amino-4-(4-methylpiperazin-1-yl)quinazoline-7-carboxamido)-3-(4-(isopropylcarbamoyloxy)phenyl)propanoate], the figure is 70 nM; as for `CC(C)Oc1ccc(C[C@H](NC(=O)c2ccc3c(N4CCN(C)CC4)nc(N)nc3c2)C(=O)N(C)C)cc1` [Example 136, (S)-2-amino-N-(1-(dimethylamino)-3-(4-isopropoxyphenyl)-1-oxopropan-2-yl)-4-(4-methylpiperazin-1-yl)quinazoline-7-carboxamide], 59 nM. Next, `CC(C)Oc1ccc(C[C@@H](C#N)NC(=O)c2ccc3c(N4CCN(C)CC4)nc(N)nc3c2)cc1` [Example 137]: 42 nM. Take `COC(=O)[C@H](Cc1ccc(-c2ccccc2)cc1)NC(=O)c1ccc2c(N3CCN(C)CC3)nc(N)nc2c1` [Example 138, Methyl (2S)-2-({[2-amino-4-(4-methylpiperazin-1-yl)quinazolin-7-yl]carbonyl}amino)-3-biphenyl-4-ylpropanoate]: the IC50 was found to be 23 nM. Take `CN1CCN(c2nc(N)nc3cc(C(=O)N[C@@H](Cc4ccc(-c5ccccc5)cc4)C(=O)N(C)C)ccc23)CC1` [Example 139, 2-Amino-N-[(1S)-1-(biphenyl-4-ylmethyl)-2-(dimethylamino)-2-oxoethyl]-4-(4-methylpiperazin-1-yl)quinazoline-7-carboxamide]: the IC50 amounted to 25 nM.

For the compound `COC(=O)[C@H](Cc1ccc(-c2cnn(C)c2)cc1)NC(=O)c1ccc2c(N3CCN(C)CC3)nc(N)nc2c1` [Example 140, Methyl (2S)-2-({[2-amino-4-(4-methylpiperazin-1-yl)quinazolin-7yl]carbonyl}amino)-3-[4-(1-methyl-1H-pyrazol-4-yl)phenyl]propanoate], the IC50 was found to be 42 nM. As to `CC(Cc1cc2ccccc2o1)NC(=O)c1ccc2c(N3CCN(C)CC3)nc(N)nc2c1` (stereo not drawn) [Example 141, 2-Amino-N-[2-(1-benzofuran-2-yl)-1-methylethyl]-4-(4-methylpiperazin-1-yl)quinazoline-7-carboxamide], the IC50 came out at 71 nM.
